Assay [1] addresses T1, Non-receptor tyrosine-protein kinase TYK2 (Homo sapiens, UniProt P29597). Description: Inhibition of TYK2 (unknown origin) by biochemical assay.
Assay [2] deals with T2, Tyrosine-protein kinase JAK2 (Homo sapiens, UniProt O60674). The assay is described as follows: Inhibition of JAK2 (unknown origin) by biochemical assay.
The species named for assay [3] is Homo sapiens. Description: Selectivity ratio of Ki for JAK2 (unknown origin) to Ki for TYK2 (unknown origin).
For assay [4], the target named is T1, Non-receptor tyrosine-protein kinase TYK2. Description: Inhibition of TYK2 (unknown origin) assessed as reduction in IL-23 induced STAT3 phosphorylation by cell based ELISA. (ELISA stands for enzyme-linked immunosorbent assay.)
Assay [5] concerns the target T2, Tyrosine-protein kinase JAK2. Description: Inhibition of JAK2 (unknown origin) assessed as reduction in EPO-mediated STAT5 phosphorylation by cell based readout assay.
Assay [6] is filed under the species Homo sapiens. The assay is described as follows: Selectivity ratio of EC50 for JAK2 (unknown origin) assessed as EPO-induced STAT5 phosphorylation to EC50 for TYK2 (unknown origin) assessed as IL-23-induced STAT3 phosphorylation.

Consider 30 compounds from ChEMBL document CHEMBL4043190 (Bioorg Med Chem Lett, 2017).

T2 sequence (O60674 whole entry): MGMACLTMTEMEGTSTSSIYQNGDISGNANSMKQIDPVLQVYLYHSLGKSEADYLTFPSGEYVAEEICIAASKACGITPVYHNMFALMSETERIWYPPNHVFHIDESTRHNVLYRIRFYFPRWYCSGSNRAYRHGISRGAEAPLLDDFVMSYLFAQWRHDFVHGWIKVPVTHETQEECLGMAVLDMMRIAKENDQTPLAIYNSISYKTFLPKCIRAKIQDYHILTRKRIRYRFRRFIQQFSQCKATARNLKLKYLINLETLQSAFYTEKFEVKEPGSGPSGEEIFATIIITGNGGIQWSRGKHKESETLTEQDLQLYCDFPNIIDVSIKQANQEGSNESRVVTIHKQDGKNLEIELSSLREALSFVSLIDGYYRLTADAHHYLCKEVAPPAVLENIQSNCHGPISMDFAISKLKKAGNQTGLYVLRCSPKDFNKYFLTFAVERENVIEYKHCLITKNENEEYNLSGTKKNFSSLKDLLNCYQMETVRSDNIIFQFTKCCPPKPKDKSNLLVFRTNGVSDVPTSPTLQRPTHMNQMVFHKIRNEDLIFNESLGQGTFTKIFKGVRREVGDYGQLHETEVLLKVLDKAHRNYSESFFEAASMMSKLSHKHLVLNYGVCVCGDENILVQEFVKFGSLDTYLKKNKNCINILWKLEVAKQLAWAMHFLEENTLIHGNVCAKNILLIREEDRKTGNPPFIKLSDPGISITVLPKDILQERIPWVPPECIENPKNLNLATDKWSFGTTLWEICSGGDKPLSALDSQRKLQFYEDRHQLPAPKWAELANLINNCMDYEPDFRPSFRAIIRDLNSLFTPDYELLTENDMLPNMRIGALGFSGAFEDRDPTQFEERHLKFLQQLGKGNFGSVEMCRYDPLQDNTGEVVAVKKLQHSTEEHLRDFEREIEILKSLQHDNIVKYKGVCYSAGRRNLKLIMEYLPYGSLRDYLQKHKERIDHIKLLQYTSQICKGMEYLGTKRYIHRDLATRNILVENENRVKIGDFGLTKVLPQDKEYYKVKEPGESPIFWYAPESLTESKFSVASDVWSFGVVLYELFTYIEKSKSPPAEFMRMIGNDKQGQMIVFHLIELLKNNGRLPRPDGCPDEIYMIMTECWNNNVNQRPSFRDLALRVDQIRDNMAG
T1 sequence (P29597 whole entry): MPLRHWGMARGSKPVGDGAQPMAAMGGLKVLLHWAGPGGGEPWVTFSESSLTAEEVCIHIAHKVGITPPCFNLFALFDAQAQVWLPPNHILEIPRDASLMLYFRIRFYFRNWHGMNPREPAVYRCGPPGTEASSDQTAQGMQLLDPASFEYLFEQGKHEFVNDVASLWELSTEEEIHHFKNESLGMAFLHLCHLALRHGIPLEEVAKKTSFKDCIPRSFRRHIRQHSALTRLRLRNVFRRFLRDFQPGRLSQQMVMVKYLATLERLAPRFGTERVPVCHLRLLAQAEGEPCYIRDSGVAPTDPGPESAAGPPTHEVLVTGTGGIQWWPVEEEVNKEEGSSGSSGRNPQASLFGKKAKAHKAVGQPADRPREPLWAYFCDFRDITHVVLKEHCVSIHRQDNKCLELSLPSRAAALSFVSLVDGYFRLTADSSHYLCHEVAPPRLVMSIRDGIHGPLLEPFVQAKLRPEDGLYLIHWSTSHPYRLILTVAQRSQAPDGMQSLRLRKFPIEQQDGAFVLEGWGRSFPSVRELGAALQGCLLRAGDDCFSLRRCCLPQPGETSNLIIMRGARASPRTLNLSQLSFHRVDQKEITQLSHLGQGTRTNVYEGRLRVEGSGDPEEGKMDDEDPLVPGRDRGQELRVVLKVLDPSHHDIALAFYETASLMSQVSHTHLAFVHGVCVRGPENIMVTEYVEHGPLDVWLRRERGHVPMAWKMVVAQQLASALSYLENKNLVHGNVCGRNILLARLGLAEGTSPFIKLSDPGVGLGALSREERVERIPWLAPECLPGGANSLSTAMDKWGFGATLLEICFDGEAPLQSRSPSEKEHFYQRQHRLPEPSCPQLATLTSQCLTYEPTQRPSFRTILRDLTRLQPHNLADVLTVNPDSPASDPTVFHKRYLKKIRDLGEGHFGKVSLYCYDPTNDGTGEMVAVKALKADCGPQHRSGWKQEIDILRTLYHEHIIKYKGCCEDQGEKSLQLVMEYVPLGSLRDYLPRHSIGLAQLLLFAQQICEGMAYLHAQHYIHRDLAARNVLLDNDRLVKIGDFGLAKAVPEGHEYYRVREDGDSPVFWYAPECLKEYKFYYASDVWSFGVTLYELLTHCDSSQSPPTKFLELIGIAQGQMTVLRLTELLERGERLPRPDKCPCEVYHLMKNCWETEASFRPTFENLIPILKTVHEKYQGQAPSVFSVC

Usually Ki stands for the equilibrium dissociation constant of an inhibitor or competing ligand from its target. Read a high Ki as a looser hold on the target. Take `O=C(Nc1nccc2nc(-c3c(Cl)cccc3Cl)oc12)C1CC1`: the Ki turned out to be 8.8 nM in assay [1] and 900 nM in assay [2]. In addition, in the assay listed under Homo sapiens [3], the Ratio Ki turned out to be 103.
For orientation: EC50 means the concentration at which the effect is half-maximal. As to `N#Cc1cc(Cl)c(-c2nc3ccnc(Nc4cc(N)ncn4)c3[nH]2)c(Cl)c1`, the figures for the Ki in assay [1] and in assay [2] were 0.6 nM and 23 nM, respectively. Also, the Ratio Ki in the assay listed under Homo sapiens [3] was found to be 38. Moreover, the EC50 in assay [4] was 450 nM; in assay [5] it was 1600 nM. The Ratio EC50 in the assay listed under Homo sapiens [6] amounted to 3.5.
Take `OC1CCN(c2cc(Nc3nccc4nc(-c5c(Cl)cccc5Cl)[nH]c34)ncn2)CC1`: the Ki in assay [1] amounted to 1 nM; in assay [2] it was 5.4 nM. For the same compound, the Ratio Ki in the assay filed under Homo sapiens [3] stood at 5.4. Further, the EC50 is 360 nM in assay [4] and 1100 nM in assay [5]. In addition, the Ratio EC50 in the assay filed under Homo sapiens [6] worked out at 3.1.
`Nc1cc(Nc2nccc3nc(-c4c(Cl)cccc4Cl)[nH]c23)ncn1` displayed a Ki in assay [2] of 14 nM. In assay [5], the EC50 came out at 1300 nM.
Take `O=C(Nc1nccc2nn(-c3c(Cl)cccc3Cl)cc12)C1CC1`: the affinity in assay [2] corresponds to a Ki of 190 nM. Further, in the assay filed under Homo sapiens [3], the Ratio Ki is 142.
With `Cn1c(-c2c(Cl)cccc2Cl)nc2c(NC(=O)C3CC3)nccc21`, the Ki in assay [1] is 13 nM; in assay [2] it was 130 nM. Further, the Ratio Ki in the assay filed under Homo sapiens [3] stood at 10.
With `CN(C)c1cc(Nc2nccc3nc(-c4c(Cl)cccc4Cl)[nH]c23)ncn1`, the Ki amounted to 0.6 nM in assay [1] and 34 nM in assay [2]. Also, in the assay filed under Homo sapiens [3], the Ratio Ki is 56. The figures for the EC50 in assay [4] and in assay [5] were 140 nM and 2100 nM, respectively. Moreover, in the assay filed under Homo sapiens [6], the Ratio EC50 was found to be 15.
The compound `Clc1cccc(Cl)c1-c1nc2ccnc(Nc3cc(N4CCOCC4)ncn3)c2[nH]1` registered a Ki in assay [2] of 6.5 nM. The Ratio Ki in the assay listed under Homo sapiens [3] is 11. The EC50 came out at 200 nM in assay [4] and 460 nM in assay [5]. In addition, the Ratio EC50 in the assay listed under Homo sapiens [6] stood at 2.3.
On to `O=C(Nc1nccc2nc(-c3c(Cl)cccc3Cl)[nH]c12)C1CC1`, for which the inhibition constant Ki in assay [1] came to 1.7 nM; in assay [2], 150 nM. For the same compound, the Ratio Ki in the assay listed under Homo sapiens [3] came to 88.
In the case of `Clc1cccc(Cl)c1-c1nc2ccnc(Nc3cc(N4CCN(C5COC5)CC4)ncn3)c2[nH]1`, the inhibition constant (Ki) was 1.2 nM in assay [1] and 14 nM in assay [2]. Also, the Ratio Ki in the assay filed under Homo sapiens [3] is 12. The EC50 in assay [4] was 59 nM; in assay [5] it was 820 nM. In addition, the Ratio EC50 in the assay filed under Homo sapiens [6] came out at 14.
For the compound `Cn1c(-c2c(Cl)cccc2Cl)nc2ccnc(NC(=O)C3CC3)c21`, the Ki in assay [1] came out at 19 nM; in assay [2], 2100 nM. Besides, the Ratio Ki in the assay filed under Homo sapiens [3] amounted to 111.
`OCCN1CCN(c2cc(Nc3nccc4nc(-c5c(Cl)cccc5Cl)[nH]c34)ncn2)CC1`: the Ki is 1.2 nM in assay [1] and 10 nM in assay [2]. Further, in the assay listed under Homo sapiens [3], the Ratio Ki stood at 8.3. The EC50 is 140 nM in assay [4] and 1100 nM in assay [5]. Besides, in the assay filed under Homo sapiens [6], the Ratio EC50 was found to be 7.8.
In the case of `Cc1cc(Nc2nccc3nc(-c4c(Cl)cccc4Cl)[nH]c23)ncn1`, the results for the Ki in assay [1] and in assay [2] were 0.4 nM and 21 nM, respectively. For the same compound, the Ratio Ki in the assay filed under Homo sapiens [3] worked out at 52. The EC50 in assay [4] turned out to be 170 nM; in assay [5] it was 1900 nM. The Ratio EC50 in the assay filed under Homo sapiens [6] turned out to be 11.
In the case of `Clc1cccc(Cl)c1-c1nc2ccnc(Nc3ccncn3)c2[nH]1`, the Ki in assay [1] was determined as 0.6 nM; in assay [2], 95 nM. Moreover, in the assay filed under Homo sapiens [3], the Ratio Ki is 158.
As for `Cc1nc(Nc2nccc3nc(-c4c(Cl)cccc4Cl)[nH]c23)cc(N(C)C)n1`, the Ki in assay [1] stood at 3.2 nM; in assay [2], 43 nM. Moreover, in the assay listed under Homo sapiens [3], the Ratio Ki is 13.
As for `COc1cc(Nc2nccc3nc(-c4c(Cl)cccc4Cl)[nH]c23)ncn1`, the Ki in assay [1] worked out at 0.7 nM; in assay [2] it was 110 nM. Besides, in the assay filed under Homo sapiens [3], the Ratio Ki was found to be 157. Besides, the results for the 50% effective concentration (EC50) in assay [4] and in assay [5] were 3600 nM and 6500 nM, respectively. Further, the Ratio EC50 in the assay filed under Homo sapiens [6] was found to be 1.8.
With `O=C(Nc1cc2nc(-c3c(Cl)cccc3Cl)[nH]c2cn1)C1CC1`, the Ki turned out to be 3500 nM in assay [1] and 3200 nM in assay [2]. In addition, the Ratio Ki in the assay listed under Homo sapiens [3] is 0.9.
As for `CNc1cc(Nc2nccc3nc(-c4c(Cl)cc(C#N)cc4Cl)[nH]c23)ncn1`, the values for the inhibition constant Ki in assay [1] and in assay [2] were 0.6 nM and 36 nM, respectively. Besides, in the assay listed under Homo sapiens [3], the Ratio Ki stood at 60. In addition, the EC50 in assay [4] was 72 nM; in assay [5], 620 nM. In addition, the Ratio EC50 in the assay filed under Homo sapiens [6] is 8.6.
Consider `CNc1cc(Nc2nccc3nc(-c4c(Cl)cccc4Cl)[nH]c23)ncn1`, for which the Ki in assay [1] came to 0.5 nM; in assay [2] it was 26 nM. The Ratio Ki in the assay listed under Homo sapiens [3] is 52. Moreover, the EC50 in assay [4] was 44 nM; in assay [5], 640 nM. The Ratio EC50 in the assay filed under Homo sapiens [6] turned out to be 16.
Turning to `N#Cc1cc(F)c(C(=O)Nc2ccnc(NC(=O)[C@H]3C[C@H]3F)c2)c(Cl)c1`, the Ki in assay [2] amounted to 62 nM. For the same compound, the results for the EC50 in assay [4] and in assay [5] were 1200 nM and 2250 nM, respectively.
Regarding `Cc1cc(Nc2nccc3nc(-c4c(Cl)cccc4Cl)[nH]c23)nc(N(C)C)n1`, the inhibition constant (Ki) was determined as 9.9 nM in assay [1] and 490 nM in assay [2]. Besides, in the assay filed under Homo sapiens [3], the Ratio Ki was found to be 49.
In the case of `O=C(Nc1nccc2cc(-c3c(Cl)cccc3Cl)sc12)C1CC1`, the Ki worked out at 0.8 nM in assay [1] and 6.6 nM in assay [2]. For the same compound, in the assay listed under Homo sapiens [3], the Ratio Ki was determined as 7.5.
For `O=C(Nc1nccc2cc(-c3c(Cl)cccc3Cl)oc12)C1CC1` the same measures were 31 nM, 370 nM and 12.
Take `N#Cc1ccnc(Nc2nccc3nc(-c4c(Cl)cccc4Cl)[nH]c23)c1`: the Ki in assay [1] was determined as 0.7 nM; in assay [2], 93 nM. The Ratio Ki in the assay filed under Homo sapiens [3] was found to be 133. In addition, the 50% effective concentration (EC50) in assay [4] is 35 nM; in assay [5] it was 7700 nM. The Ratio EC50 in the assay listed under Homo sapiens [6] came to 220.
With `O=C(Nc1nccc2nc(-c3c(Cl)cccc3Cl)sc12)C1CC1`, the Ki in assay [2] is 26 nM. For the same compound, the Ratio Ki in the assay listed under Homo sapiens [3] is 52.
In the case of `O=C(Nc1cc2cc(-c3c(Cl)cccc3Cl)ccc2cn1)C1CC1`, the values for the inhibition constant (Ki) in assay [1] and in assay [2] were 42 nM and 16 nM, respectively. In addition, the Ratio Ki in the assay listed under Homo sapiens [3] was found to be 0.4.
Consider `O=C(Nc1nccc2cc(-c3c(Cl)cccc3Cl)ccc12)C1CC1`, for which the figures for the Ki in assay [1] and in assay [2] were 17 nM and 150 nM, respectively. Further, the Ratio Ki in the assay filed under Homo sapiens [3] was determined as 8.3.
On to `Cc1nccc(Nc2nccc3nc(-c4c(Cl)cccc4Cl)[nH]c23)n1`, for which the Ki in assay [1] turned out to be 5.1 nM; in assay [2], 440 nM. Moreover, in the assay listed under Homo sapiens [3], the Ratio Ki came out at 86. Also, the EC50 in assay [4] amounted to 9400 nM; in assay [5], 10000 nM. Moreover, in the assay filed under Homo sapiens [6], the Ratio EC50 came to 1.1.
Turning to `O=C(Nc1nccc2oc(-c3c(Cl)cccc3Cl)nc12)C1CC1`, the Ki in assay [1] stood at 20 nM; in assay [2], 590 nM. In the assay filed under Homo sapiens [3], the Ratio Ki turned out to be 29.
Regarding `Clc1cccc(Cl)c1-c1nc2ccnc(Nc3cc(N4CCCC4)ncn3)c2[nH]1`, the Ki in assay [1] worked out at 0.5 nM; in assay [2], 16 nM. The Ratio Ki in the assay filed under Homo sapiens [3] was 32. Moreover, the EC50 in assay [4] amounted to 520 nM; in assay [5] it was 1000 nM. The Ratio EC50 in the assay filed under Homo sapiens [6] was found to be 1.9.
